# Reference: ChEMBL document CHEMBL2028040, “Malaria Box”
# Columns and labels:
# [1] = test system: Trypanosoma brucei brucei; test: MMV: Inhibition of Trypanosoma brucei brucei (Squib 427) (HAT in vitro).; type: functional, organism-based
# [2] = MMV: Cytotoxicity against human fibroblasts (MRC-5) cells.; conditions: MRC-5 cells (human fibroblasts)
# Leishmania infantum = test: MMV: Inhibition of Leishmania infantum (MHOM/MA/BE/67) in vitro.; type: functional, organism-based
# Plasmodium falciparum [3] = test: MMV: Inhibition of Plasmodium falciparum 3D7 at 5uM compound concentration.; type: functional
# [4] = test system: Trypanosoma brucei rhodesiense; test: MMV: Inhibition of Trypanosoma brucei rhodesiense (STIB 900) (HAT in vitro).; type: functional, organism-based
# Trypanosoma cruzi = test: MMV: Inhibition of Trypanosoma cruzi (Tulahuen C4 LacZ) (Chagas in vitro).; type: functional, organism-based
# Plasmodium falciparum [5] = test: MMV: Inhibition of Plasmodium falciparum 3D7 (EC50).; type: functional, organism-based
# Plasmodium falciparum [6] = test: MMV: Inhibition of Plasmodium falciparum K1 (EC50).; type: functional, organism-based
Compound,IC50 [1] [µM],IC50 (Leishmania infantum) [µM],IC50 [4] [µM],IC50 (Trypanosoma cruzi) [µM],EC50 (Plasmodium falciparum [5]) [µM],EC50 (Plasmodium falciparum [6]) [µM],IC50 [2] [µM],inhibition at 5 µM (Plasmodium falciparum [3]) [%]
O=C(Nc1ccc(Cl)c(Cl)c1)Nc1ccc(Cl)c(Cl)c1,2.5,10.6,2.17,3.82,1.16,1.26,> 32,96
CCCCCC(=O)N1c2ccccc2N=C2CC(c3ccc(OC)c(OC)c3)CC(O)=C2C1c1ccc(C(F)(F)F)cc1 (stereo unspecified),4.06,25.4,1.69,12.1,0.237,0.288,> 32,100
COc1ccc(-c2nc(NC(=O)CS(=O)(=O)c3ccc(F)cc3)sc2C)cc1,16,> 32,16.1,16.8,0.448,1.28,> 32,97
FC(F)(F)c1cccc(Nc2nc3ccccc3nc2Nc2cccc(C(F)(F)F)c2)c1,3.78,4.06,4,3.75,0.313,0.501,9.31,99
Cc1ccc(C(=O)c2oc3ccc4c(C)cc(=O)oc4c3c2C)cc1,> 32,> 32,> 32,> 32,0.906,1.04,21.2,96
COc1cccc(NC(=O)[C@H](C(C)C)n2c(=O)[nH]c3ccccc3c2=O)c1,4.32,5.66,1.05,9.22,0.139,0.203,> 32,99
COc1cccc(NC(=O)Cn2c(C)c(C#N)c3ccccc32)c1,> 32,> 32,20.2,> 32,1.09,1.48,> 32,95
CC(C)(C)c1ccc(O)c(CNC2CCCCC2)c1,3.78,16,4,21.2,0.161,0.0458,> 32,96
CCCCNc1nc(NC(C)(C)C)nc(NC(C)(C)C)n1,1.33,2.97,2,9.19,0.706,0.705,> 32,98
CCOC(=O)c1c(NC(=O)c2ccccc2)sc2c(O)c(CN(CC)CC)ccc12,> 32,16.2,> 32,> 32,0.205,0.114,> 32,96
CCOc1cc(Cl)c(C(C)NC(=O)c2cccc(OC)c2)cc1OCC (stereo unspecified),> 32,> 32,21,18.7,0.728,1.36,6.59,98
CCCCOC(=O)c1ccc(Nc2cc(C)nc3ccc(OC)cc23)cc1,3.94,4.76,3.51,3.67,0.584,2.14,14.3,99
Cn1c(=O)n(C)c2cc(CNCCNc3ccnc4cc(Cl)ccc34)ccc21,11.5,17.3,0.419,16.9,0.545,1.51,> 32,90
CC(NCc1ccccc1)c1cc(Cl)ccc1O (stereo unspecified),> 32,> 32,16,> 32,0.603,0.243,> 32,95
O=c1cc(NC2CCN(CCCc3ccccc3)CC2)c2cc(Cl)ccc2o1,15,10.1,4.09,15.6,0.846,0.532,> 32,97
COc1ccccc1CNC(=O)CCn1c(=O)[nH]c2ccccc2c1=O,> 32,> 32,> 32,> 32,0.0726,0.19,> 32,64
COc1ccccc1NC1=C(N2CCCCC2)C(=O)c2ccccc2C1=O,1.01,3.01,0.315,< 0.125,0.0053,0.01,9.88,98
Oc1c(C(Nc2ccccn2)c2cccc(Oc3ccccc3)c2)ccc2cccnc12 (stereo unspecified),1.01,1,0.972,1.05,1.01,1.07,3.89,97
CCOC(=O)c1cn(CC)c2cc(N3CCCCC3)c(F)cc2c1=O,> 32,> 32,> 32,> 32,0.119,0.259,> 32,100
CCCc1cc(O)c2c3c(c(=O)oc2c1)CN(C)CC3,> 32,> 32,> 32,> 32,0.146,0.0807,> 32,97
CNCCCNc1ccnc2cc(Cl)ccc12,3.82,16.2,3.92,16.5,0.0822,1,> 32,98
COc1ccc(Br)cc1C1Nc2ccc3ccccc3c2C2=C1C(=O)CC(c1ccccc1)C2 (stereo unspecified),4.06,> 32,1.06,1.12,0.18,0.4,> 32,95
OC(CNC1CCCCC1)Cn1c2ccc(I)cc2c2cc(I)ccc21 (stereo unspecified),0.877,1.59,0.784,0.902,0.466,0.298,4.03,97
CCOc1ccc(-c2nonc2NC(=O)c2cccc(C)c2)cc1OCC,> 32,> 32,> 32,> 32,0.117,0.127,> 32,86
COc1ccc2c(=O)cc(C(Cl)(Cl)Cl)oc2c1,16.9,16.2,> 32,0.432,0.52,0.55,7.58,94

# Second part, led by results:
IC50 [1] [µM],IC50 (Leishmania infantum) [µM],IC50 [4] [µM],IC50 (Trypanosoma cruzi) [µM],EC50 (Plasmodium falciparum [5]) [µM],EC50 (Plasmodium falciparum [6]) [µM],Compound,IC50 [2] [µM],inhibition at 5 µM (Plasmodium falciparum [3]) [%]
2.77,4,1.01,4.17,0.893,1.4,N=c1n(CCN2CCCCC2)c2ccccc2n1CC(O)c1cccc(Br)c1 (stereo unspecified),27.6,98
15.3,> 32,4.54,> 32,0.64,0.419,CCC(O)c1ccc(Br)cc1NC(=O)c1cccc(Cl)c1 (stereo unspecified),> 32,97
0.185,4.15,< 0.125,3.85,0.876,0.763,CN(C)CCCNCc1ccc(-c2ccc(F)c(Cl)c2)o1,17.3,96
16.1,12,13.1,4.09,0.259,0.916,CCC(c1ccccc1)c1nn2c(-c3cccs3)nnc2s1 (stereo unspecified),> 32,99
> 32,> 32,15.9,22.9,0.00671,0.0141,Cc1cc(Nc2ccc(C)c(Cl)c2)n2nc(C(F)(F)F)nc2n1,> 32,98
> 32,> 32,> 32,> 32,0.871,0.843,CC(=O)Nc1nnc(SCc2c(C)cc(C(C)(C)C)cc2C)s1,> 32,96
> 32,> 32,> 32,> 32,0.536,0.502,CC(=O)c1sc(NC(=O)Nc2ccc(C)cc2C)nc1C,> 32,64
> 32,> 32,> 32,> 32,0.591,0.825,COc1ccc(C=C2SC(Nc3ccc(F)cc3)=NC2=O)c(OC)c1,> 32,92
15.7,17.3,16,> 32,0.0226,0.0068,Oc1ccccc1CNCC12CC3CC(CC(C3)C1)C2,> 32,96
1.41,3.01,0.861,2.2,0.274,0.773,CC1CCN(Cc2ccc(NC(=O)c3cc4ccc5cccnc5c4[nH]3)cc2)CC1,1.45,97
< 0.125,3.01,< 0.125,1.08,1.01,1,CC1CC2=C(CC1CNCCCN(C)C)C(C)(C)CCC2 (stereo unspecified),4.15,98
3.84,> 32,1.01,> 32,0.769,0.438,Cc1c(C)n(CC(O)CNC2CCCCC2C)c2ccccc12 (stereo unspecified),> 32,96
